In US20260078348A1, “MULTIPLE MYELOMA MICROORGANOSPHERES” (Xilis, Inc., priority 2022, published 2026):

Key:
[1] = tested on: MM MOS; assay: Caspase 3/7 green dye apoptosis monitoring of drug-treated MM MOS (INCUCYTE imaging); format: cell-based, human; details: for MM MOS death (Caspase 3/7 signal): day 11 MM MOS, 5 μM lenalidomide or 2 nM bortezomib for 92 hours, vs negative control
Experimental: Studies were conducted to determine the effects of various MM drugs on the MM MOS. For example, day 11 MM MOS were treated with 5 μM lenalidomide or 2 nM bortezomib for 92 hours, with no medium change during the drug treatment. Caspase 3/7 green dye was included in the medium to monitor apoptosis, and fluorescence was measured.

[2] = tested on: MM MOS; assay: Live/dead dye (calcein AM / ethidium homodimer) imaging of drug-treated MM MOS; format: cell-based, human; details: for MM MOS response to treatment: 10 μM for 4 days, live/dead dye images, n=3, p<0.05 by t-test; for live/dead ratio: 10 μM, 4 days of treatment beginning on day 9 of MOS generation, compared to negative control
Experimental: Further studies were conducted using 10 μM carfilzomib or 10 μM selinexor treatment beginning on day 9 of MOS generation from MM patient bone marrow biopsy samples. After 4 days of treatment, live/dead dyes (calcein AM-green and ethidium homodimer-red) were added to the wells for a 30-minute incubation.

SMILES	MM MOS death (Caspase 3/7 signal) [1]	MM MOS response to treatment [2]	live/dead ratio [2]	time at which MM MOS responded after onset of treatment ([1]; 5 μM lenalidomide, INCUCYTE images taken every 2 hours)
CC(C)C[C@H](NC(=O)[C@H](Cc1ccccc1)NC(=O)c1cnccn1)B(O)O [bortezomib]	not			
CC(C)C[C@H](NC(=O)[C@H](CCc1ccccc1)NC(=O)CN1CCOCC1)C(=O)N[C@@H](Cc1ccccc1)C(=O)N[C@@H](CC(C)C)C(=O)[C@@]1(C)CO1 [carfilzomib]		responded	significantly reduced	
Nc1cccc2c1CN(C1CCC(=O)NC1=O)C2=O (stereo not shown) [lenalidomide]	increased			24 h
O=C(/C=C\n1cnc(-c2cc(C(F)(F)F)cc(C(F)(F)F)c2)n1)NNc1cnccn1 [selinexor]		responded	significantly reduced	
